# Tested on: sexual dysfunction in male patients taking selective serotonin reuptake inhibitors
# Assay: Crossover home-use trial of sublingual apomorphine in male patients taking SSRIs (sexual function questionnaire)
# Assay type: in vivo, human (male patients)
# Conditions: male patients on SSRI's
# Method: A crossover study of 1500 patients in a home-use trial of apomorphine on male patients was performed.
# In the crossover study, a 2-4 week baseline period was used to evaluate subjects. After this time, during an initial four week treatment period, subjects received either a placebo or apomorphine, without knowing whether or not they had received the active medication. The dosage was either 2, 4, 5 or 6 mg. This initial treatment period was followed by a 24-96 hour washout period, in which no medication was taken. Subsequently, a second four week treatment period, subjects who previously had received apomorphine, were given a placebo, and subjects who previously had received the placebo were given apomorphine. Subject were to attempt coitus once each week after taking a single tablet of apomorphine sublingually. After each attempt, the subject and their partner completed a sexual function questionnaire which was later evaluated and used for final statistical analysis. In the analysis, the data for patients receiving 2, 4, 5 or 6 mg dosages was pooled.
smiles,measurement,setting,value
"CN1CCc2cccc3c2[C@H]1Cc1ccc(O)c(O)c1-3 [apomorphine, (R)-5,6,6a,7-tetrahydro-6-methyl-4H-dibenzo-[de,g]quinoline-10,11-diol]","patients on SSRI drugs able to have intercourse after apomorphine, relative to placebo",apomorphine versus placebo,twice as many patients on SSRI drugs were able to have intercourse
same,attempts successful: attempt resulted in intercourse,"single sublingual tablet, pooled 2, 4, 5 or 6 mg dosages, four week treatment period, placebo 23.4%",47.6%
same,attempts successful: erection firm enough for intercourse attained,"single sublingual tablet, pooled 2, 4, 5 or 6 mg dosages, four week treatment period, placebo 26%",48%
